A short description of data set [1]: Solubility evaluation: compound stirred in toluene, visual check for insoluble matter. It counts as physicochemical. As to conditions: for Presence of insoluble matter: 0.01 g of anthracene compound and 1 g of toluene, stirred, visual check; for solubility in toluene: concluded from visual check of 0.01 g compound in 1 g toluene. The text has this: In order to evaluate a relationship between the soluble portion B and the solubility, how the solubility was changed depending on the bonding number U of the solubility portion B was examined.
As the compound, an anthracene compound as represented by the following formula was used.
A solubility portion B of the compound was structured as represented by the formula (3), and the bonding number of the solubility portion is represented by (a).
With the above structure, compounds respectively having bonding numbers (a) of 1, 2, 3 and 6 were synthesized.
Then, 0.01 g of the anthracene compound and 1 g of toluene were put into a glass bottle to be stirred.
Whether or not any insoluble matter was present in the solution was observed by a visual check.
In order to evaluate a relationship between unit(s) structuring the soluble portion B and the solubility, how the solubility was changed depending on the structure of the solubility portion B was examined.
Compounds used in the examination were AN-1, AN-3, AN-4 and an-1.
For evaluation of the solubility, as in the solubility evaluation 1, 0.01 g of the anthracene compound and 1 g of toluene were put into a glass bottle to be stirred. Then, whether or not any insoluble matter was present in the solution was observed by a visual check.

Data set [2] in a line: Solubility of compound (a) in toluene, evaluated in advance. It counts as physicochemical.

With `c1ccc(-c2ccc(-c3cccc(-c4cccc(-c5cccc(-c6cccc(-c7cccc(-c8c9ccccc9c(-c9ccc%10ccccc%10c9)c9ccccc89)c7)c6)c5)c4)c3)cc2)cc1` [AN-4], in data set [1], the “Presence of insoluble matter” value is on record as “no insoluble matter present” and the solubility in toluene is on record as at least 1 wt %. For `c1ccc(-c2cccc(-c3ccc(-c4ccc(-c5cccc(-c6cccc(-c7cccc(-c8c9ccccc9c(-c9ccc%10ccccc%10c9)c9ccccc89)c7)c6)c5)cc4)cc3)c2)cc1` [AN-3] the same measures were “no insoluble matter present” and at least 1 wt %. `c1ccc(-c2ccccc2-c2ccc3c(-c4ccccc4)c4ccccc4c(-c4ccccc4)c3c2)cc1` [compound (a)]: the solubility in toluene in data set [2] was 10 wt %.

For the origin of these results see US20080210905A1, “ORGANIC-ELECTROLUMINESCENCE-MATERIAL-CONTAINING SOLUTION, METHOD FOR SYNTHESIZING ORGANIC ELECTROLUMINESCENCE MATERIAL, COMPOUND SYNTHESIZED BY THE METHOD, METHOD FOR FORMING THIN FILM OF ORGANIC ELECTROLUMINESCENCE MATERIAL, THIN FILM OF ORGANIC ELECTROLUMINESCENCE MATERIAL AND ORGANIC …” (Idemitsu Kosan Co., Ltd., priority 2006, published 2008).
